Test results taken from patent US8835485B2, “Prevention and treatment of sarcopenia” (PsiOxus Therapeutics Limited, priority 2009, dated 2014).

How the values were obtained:
healthy subjects = conditions: cited from earlier work
5-HT1a receptor = target: T1, 5-HT1a receptor (Homo sapiens, UniProt P08908); conditions: functional tests; cited from earlier work
T1 sequence (P08908 1-422): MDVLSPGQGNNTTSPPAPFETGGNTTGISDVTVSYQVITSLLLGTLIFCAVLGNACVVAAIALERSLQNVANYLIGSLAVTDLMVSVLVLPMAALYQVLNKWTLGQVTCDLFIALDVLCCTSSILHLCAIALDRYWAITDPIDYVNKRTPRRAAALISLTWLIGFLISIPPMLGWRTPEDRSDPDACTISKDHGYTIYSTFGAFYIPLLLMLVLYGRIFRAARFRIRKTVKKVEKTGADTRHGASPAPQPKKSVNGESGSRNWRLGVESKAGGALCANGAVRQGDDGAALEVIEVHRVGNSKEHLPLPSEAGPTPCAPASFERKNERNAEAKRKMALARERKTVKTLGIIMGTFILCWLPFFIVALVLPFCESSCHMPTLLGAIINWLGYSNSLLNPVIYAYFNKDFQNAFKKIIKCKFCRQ

[1] = system: Young, healthy, male Wistar Han rats; assay: S-Pindolol in young healthy rats, 16 days: body weight, lean mass, organ weights; type: in vivo, rat; conditions: for Gastrocnemius organ weight at the end of the study: gavage once daily, placebo 1234 ± 30; for Soleus organ weight at the end of the study / EDL organ weight at the end of the study / Tibialis organ weight at the end of the study: gavage; for Soleus organ weight at the end of the study: placebo 97 ± 2; for EDL organ weight at the end of the study: placebo 104 ± 3; for Tibialis organ weight at the end of the study: placebo 447 ± 9; for EDL percent increase in weight / Soleus percent increase in weight: versus placebo
Description: Young, healthy, male Wistar Han rats (201.8±2.4 g) were housed in groups of two to three per cage under standard conditions. Animals were randomized to receive either 0.3 mg S-Pindolol/kg/d (n=5), 3 mg S-Pindolol/kg/d (n=5) or placebo (n=16) once daily per gavage for 16 days. Body composition (lean mass) of the animals was analyzed using the EchoMRI-700 system (Echo Medical Systems, Houston, Tex., USA) before treatment and at the end of the study. Body weight was recorded before treatment and at the end of study. Organ weights were recorded at the end of study.

[2] = system: Old, healthy, male Wistar Han rats; assay: S-Pindolol in old (19 month) rats, 28 days: body weight, lean mass, organ weights; type: in vivo, rat; conditions: 3 mg/kg/d
Description: Old, healthy, male Wistar Han rats (age 19 month, at the start of the experiment) were housed in groups of two to three per cage under standard laboratory conditions. Animals were randomized to receive either 3 mg/kg/d S-Pindolol/kg/d (n=8), or placebo (n=14) once daily per gavage for 28 days. Body composition (lean mass) of the animals was analyzed using the EchoMRI-700 system (Echo Medical Systems, Houston, Tex., USA) before treatment, once per week during the study and at the end of the study. Body weight was recorded before treatment, once per week during the study and at the end of study. Organ weights were recorded at the end of study. One tibialis muscle per animals was dried at 60° C. for 48 h.

CC(C)NCC(O)COc1cccc2[nH]ccc12 (racemic) [racemic pindolol]
Effect on diastolic blood pressure (healthy subjects; healthy subjects, similar dose): reducing

CC(C)NC[C@@H](O)COc1cccc2ccccc12 [(R)-propranolol]
Block of the suppressant effects of 5-HT1a agonists on dorsal raphe neuronal firing (5-HT1a receptor): not

CC(C)NC[C@H](O)COc1cccc2ccccc12 [(S)-propranolol, (S)-1-isopropylamino-3-(1-naphthyloxy)-2-propanol]
Block of the suppressant effects of 5-HT1a agonists on dorsal raphe neuronal firing (5-HT1a receptor): blocked

CC(C)NC[C@H](O)COc1cccc2[nH]ccc12 [S-Pindolol, S-(−)-1-(1H-indol-4-yloxy)-3-(1-methylethylamino)propan-2-ol]
Alteration in blood pressure (healthy subjects; in vivo): no alteration
Gastrocnemius organ weight at the end of the study ([1]; 0.3 mg/kg/d): 1420 ± 35 mg
Soleus organ weight at the end of the study ([1]; 0.3 mg/kg/d): 107 ± 2 mg
EDL organ weight at the end of the study ([1]; 0.3 mg/kg/d): 124 ± 6 mg
Tibialis organ weight at the end of the study ([1]; 0.3 mg/kg/d): 526 ± 15 mg
EDL percent increase in weight ([1]; 0.3 mg/kg/d): +19.2%
Soleus percent increase in weight ([1]; 0.3 mg/kg/d): +10.3%
Gastrocnemius organ weight at the end of the study ([1]; 3 mg/kg/d): 1492 ± 37 mg
Soleus organ weight at the end of the study ([1]; 3 mg/kg/d): 103 ± 3 mg
EDL organ weight at the end of the study ([1]; 3 mg/kg/d): 126 ± 4 mg
Tibialis organ weight at the end of the study ([1]; 3 mg/kg/d): 535 ± 22 mg
EDL percent increase in weight ([1]; 3 mg/kg/d): +21.1%
Soleus percent increase in weight ([1]; 3 mg/kg/d): +6.2%
Lean body mass (i.e. muscle mass) ([1]; 0.3 and 3 mg/kg/d, EchoMRI, FIG. 2): dose dependently increased
Body weight (weight gain during treatment) ([1]; high dose (3 mg/kg/d), FIG. 1, p=0.0002 vs placebo): significantly increased
Tibialis organ weight at the end of the study ([2]; gavage, old rats, placebo 827 ± 34): 1034 ± 46 mg
Gastrocnemius organ weight at the end of the study ([2]; gavage, old rats, placebo 2283 ± 78): 2914 ± 133 mg
Lean body mass (i.e. muscle mass) ([2]; old rats, EchoMRI, FIGS. 7, 8): increased
Body weight (change during the treatment period) ([2]; old rats, FIGS. 4, 5): significantly increased
Tibialis dry mass ([2]; old rats, dried at 60° C. for 48 h, placebo 227 ± 9): 276 ± 12 mg
Tibialis dry mass ([2]; old rats, placebo 27.89 ± 0.78): 27.12 ± 0.46%
Tibialis water ([2]; old rats, placebo 72.1 ± 0.78): 72.88 ± 0.46%
Soleus organ weight at the end of the study ([2]; old rats, placebo 181 ± 11): 173 ± 9 mg
EDL organ weight at the end of the study ([2]; old rats, placebo 197 ± 9): 236 ± 5 mg
Lean mass increase compared to baseline ([2]; senile rats, placebo lost 1.5%): 12.7%
